Source: patent US11999727B2 (Tango Therapeutics, Inc., priority 2020, dated 2024)

Key:
[1] = system: HAP1 MTAP-intact cell line; assay: SDMA in-cell western assay, HAP1 MTAP-intact; assay type: cell-based; details: Homo sapiens, HAP1, SDMA in-cell western, HAP1 MTAP-intact; read-out: MTAP HAP1 intact IC50
In short: (§1)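 Compounds were tested in HAP1 cells differing only in MTAP status (endogenous expression versus null). Cellular SDMA levels were then measured by in-cell western, giving an IC50 in each background.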

PRMT5 [2] = molecular target: T1, PRMT5 (Homo sapiens, UniProt O14744); assay: PRMT5 biochemical IC50 assay with SAM as cofactor; details: PRMT5, SAM as cofactor; read-out: SAM IC50
T1 construct: purchased Viva (custom protein)

[3] = system: HAP1 MTAP-deleted cell line; assay: Viability assay, MTAP-deleted cell line; assay type: cell-based; details: Homo sapiens, read-out: HAP1 MTAP deleted viability
From the text: Table 1 additionally indicates IC50 values in a viability assay for the MTAP-deleted cell line (column 10), indicating the effect of treatment with compound on cell survival.

[4] = system: HAP1 MTAP-deleted cell line; assay: SDMA in-cell western assay, HAP1 MTAP-deleted; assay type: cell-based; details: for IC50: Homo sapiens, HAP1, SDMA in-cell western, HAP1 MTAP-deleted; for MTAP intact/deleted ratio: IC50 ratio HAP1 MTAP-intact / HAP1 MTAP-deleted, SDMA in-cell western
In short: as §1

PRMT5 [5] = molecular target: T1, PRMT5; assay: PRMT5 biochemical IC50 assay with no cofactor; details: PRMT5, no cofactor
From the text: Table 1 indicates IC50 values (μM) against PRMT5 for exemplary compounds in the presence of SAM as cofactor, with no cofactor, and with MTA as cofactor, respectively (columns 4-6). […] Ki values can be calculated from the IC50 values as described in the Examples section. As detailed in the Examples section, for the assay performed in the presence of SAM, IC50=Ki×1.5 (Ki=IC50/1.5).

PRMT5 [6] = molecular target: T1, PRMT5; assay: PRMT5 biochemical IC50 assay with MTA as cofactor; details: PRMT5, MTA as cofactor; read-out: MTA IC50
[7] = HAP1, viability assay, MTAP-deleted cell line
[8] = read-out: HAP 1 MTAP deleted IC50
[9] = read-out: No Cofactor/ rel IC50

T1 sequence (O14744 whole entry): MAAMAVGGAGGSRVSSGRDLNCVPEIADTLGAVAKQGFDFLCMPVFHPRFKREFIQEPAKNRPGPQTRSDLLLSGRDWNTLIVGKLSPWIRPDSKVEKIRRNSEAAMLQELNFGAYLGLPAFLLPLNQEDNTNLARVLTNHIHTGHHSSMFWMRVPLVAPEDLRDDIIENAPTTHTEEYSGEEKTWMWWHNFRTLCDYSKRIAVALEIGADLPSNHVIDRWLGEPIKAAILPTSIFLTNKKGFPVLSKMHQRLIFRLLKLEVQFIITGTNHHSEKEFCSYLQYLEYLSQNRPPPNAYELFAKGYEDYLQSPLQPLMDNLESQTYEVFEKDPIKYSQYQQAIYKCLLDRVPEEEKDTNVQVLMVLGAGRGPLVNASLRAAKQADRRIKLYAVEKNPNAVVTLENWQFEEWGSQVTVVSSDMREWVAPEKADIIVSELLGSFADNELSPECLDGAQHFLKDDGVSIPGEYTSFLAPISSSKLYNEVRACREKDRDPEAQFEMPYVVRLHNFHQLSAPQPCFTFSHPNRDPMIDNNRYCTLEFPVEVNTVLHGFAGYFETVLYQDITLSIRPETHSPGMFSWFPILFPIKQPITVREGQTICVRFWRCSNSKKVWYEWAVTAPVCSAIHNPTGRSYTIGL
T1 sequence (Q9BQA1 whole entry partner): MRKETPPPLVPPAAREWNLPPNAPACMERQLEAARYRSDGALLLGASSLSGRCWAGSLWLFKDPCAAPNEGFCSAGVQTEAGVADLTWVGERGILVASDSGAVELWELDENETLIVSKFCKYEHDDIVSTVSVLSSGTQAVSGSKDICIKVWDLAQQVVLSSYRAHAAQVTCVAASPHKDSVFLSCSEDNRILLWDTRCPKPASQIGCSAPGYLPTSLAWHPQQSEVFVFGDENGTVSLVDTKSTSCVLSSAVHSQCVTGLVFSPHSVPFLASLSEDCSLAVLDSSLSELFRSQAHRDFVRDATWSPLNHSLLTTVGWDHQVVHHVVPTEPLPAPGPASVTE

Row | Compound | IC50 [1] [nM] | IC50 (PRMT5 [2]) [nM] | IC50 ([4]; read-out: HAP1 MTAP deleted IC50) [nM] | IC50 (PRMT5 [5]; read-out: No Cofactor/rel IC50) [nM] | IC50 (PRMT5 [6]) [nM] | IC50 [4, 8] [nM] | IC50 (PRMT5 [5]; [9]) [nM] | IC50 [3, 7] [nM] | MTAP intact/deleted ratio [4] | IC50 ([3]; HAP1, viability, HAP1 MTAP-deleted cell line) [nM]
1 | Cc1cc(NC(=O)C(=O)N2CC(C)CC(C)C2c2ccccc2)cnc1N (mixture of isomers) [Compound 314, N-(6-amino-5-methyl-3-pyridyl)-2-(3,5-dimethyl-2-phenyl-1-piperidyl)-2-oxo-acetamide] | > 1000 | > 500 | 100 to 1000 | 50 to 500 | 50 to 500 | – | – | 1000 to 10000 | A (an IC50 ratio greater than or equal to 10 fold) | –
2 | CCc1cc(NC(=O)C(=O)N2C[C@@H](C)CC[C@@H]2c2ccc3sc(CC(C)N(C)C)nc3c2)cnc1N (mixture of isomers) [Compound 1345, N-(6-amino-5-ethylpyridin-3-yl)-2-((2R,5S)-2-(2-(2-(dimethylamino)propyl)benzo[d]thiazol-5-yl)-5-methylpiperidin-1-yl)-2-oxoacetamide] | < 100 | 50 to 500 | – | – | < 50 | < 100 | < 50 | – | A (an IC50 ratio greater than or equal to 10 fold) | < 1000
3 | Cc1cccc(C2CCCCN2C(=O)C(=O)Nc2cnc(N)c(C)c2)c1 (racemic) [Compound 31, N-(6-Amino-5-methyl-3-pyridyl)-2-[2-(m-tolyl)-1-piperidyl]-2-oxo-acetamide] | > 1000 | 50 to 500 | – | – | < 50 | 100 to 1000 | 50 to 500 | > 10000 | A (an IC50 ratio greater than or equal to 10 fold) | –
4 | Cc1cc(NC(=O)C(=O)N2CCCCC2c2ccncc2)cnc1N (racemic) [Compound 36, N-(6-Amino-5-methyl-3-pyridyl)-2-oxo-2-[2-(4-pyridyl)-1-piperidyl]acetamide] | > 1000 | 50 to 500 | – | – | < 50 | 100 to 1000 | 50 to 500 | > 10000 | A (an IC50 ratio greater than or equal to 10 fold) | –
5 | Cc1cc(NC(=O)C(=O)N2CCCCC2c2ccccc2)cnc1N (racemic) [Compound 53, N-(6-Amino-5-methyl-3-pyridyl)-2-oxo-2-(2-phenyl-1-piperidyl)acetamide] | > 1000 | 50 to 500 | – | – | < 50 | 100 to 1000 | 50 to 500 | > 10000 | A (an IC50 ratio greater than or equal to 10 fold) | –
6 | Cc1cc(NC(=O)C(=O)N2CC(C)(C)CCC2c2ccccc2)cnc1N (racemic) [Compound 56, N-(6-amino-5-methylpyridin-3-yl)-2-(5,5-dimethyl-2-phenylpiperidin-1-yl)-2-oxoacetamide] | 100 to 1000 | 50 to 500 | – | – | 50 to 500 | < 100 | 50 to 500 | 1000 to 10000 | B (an IC50 ratio greater than or equal to 3 fold but lower than 10 fold) | –
7 | Cc1cncc(NC(=O)C(=O)N2C[C@@H](C)CC[C@@H]2c2cccs2)c1 (racemic) [Compound 60, rac-2-((2R,5S)-5-methyl-2-(thiophen-2-yl)piperidin-1-yl)-N-(5-methylpyridin-3-yl)-2-oxoacetamide] | > 1000 | > 500 | – | – | 50 to 500 | > 1000 | > 500 | > 10000 | C (an IC50 ratio of less than 3 fold) | –
8 | Cc1cc(NC(=O)C(=O)N2C[C@H](C)CC[C@@H]2c2ccnn2C)cnc1N (racemic) [Compound 66, rac-N-(6-amino-5-methylpyridin-3-yl)-2-((2R,5R)-5-methyl-2-(1-methyl-1H-pyrazol-5-yl)piperidin-1-yl)-2-oxoacetamide] | > 1000 | 50 to 500 | – | – | < 50 | 100 to 1000 | 50 to 500 | > 10000 | A (an IC50 ratio greater than or equal to 10 fold) | –
9 | C[C@@H]1CC[C@H](c2ccnn2C)N(C(=O)C(=O)Nc2cncc(C(N)=O)c2)C1 (racemic) [Compound 72, 5-(2-(5-methyl-2-(1-methyl-1H-pyrazol-5-yl)piperidin-1-yl)-2-oxoacetamido)nicotinamide] | > 1000 | 50 to 500 | – | – | 50 to 500 | 100 to 1000 | 50 to 500 | > 10000 | A (an IC50 ratio greater than or equal to 10 fold) | –
10 | NC(=O)c1cncc(NC(=O)C(=O)N2C[C@@H]3CC[C@@H](C3)[C@@H]2c2cccs2)c1 (racemic) [Compound 79, 5-[[2-oxo-2-[(1S,4S,5R)-4-(2-thienyl)-3-azabicyclo[3.2.1]octan-3-yl]acetyl]amino]pyridine-3-carboxamide] | > 1000 | 50 to 500 | – | – | 50 to 500 | 100 to 1000 | > 500 | > 10000 | A (an IC50 ratio greater than or equal to 10 fold) | –
11 | COc1ncc(NC(=O)C(=O)N2C[C@@H](C)CC[C@@H]2c2ccc(F)cc2)cc1C(F)F [Compound 1057, N-[5-(Difluoromethyl)-6-methoxy-3-pyridyl]-2-[(2R,5S)-2-(4-fluorophenyl)-5-methyl-1-piperidyl]-2-oxo-acetamide] | > 1000 | > 500 | – | 50 to 500 | 50 to 500 | > 1000 | – | – | B (an IC50 ratio greater than or equal to 3 fold but lower than 10 fold) | –

Second part, led by results:

Row | IC50 [1] [nM] | IC50 (PRMT5 [2]) [nM] | IC50 ([4]; read-out: HAP1 MTAP deleted IC50) [nM] | IC50 (PRMT5 [5]; read-out: No Cofactor/rel IC50) [nM] | IC50 (PRMT5 [6]) [nM] | IC50 [4, 8] [nM] | IC50 (PRMT5 [5]; [9]) [nM] | Compound | IC50 [3, 7] [nM] | MTAP intact/deleted ratio [4] | IC50 ([3]; HAP1, viability, HAP1 MTAP-deleted cell line) [nM]
12 | > 1000 | > 500 | – | – | 50 to 500 | > 1000 | > 500 | Cc1cncc(NC(=O)C(=O)N2C[C@H](C)CC[C@H]2c2cccc(C)c2)c1 (racemic) [Compound 8, rac-2-[(2R,5S)-5-methyl-2-(m-tolyl)-1-piperidyl]-N-(5-methyl-3-pyridyl)-2-oxo-acetamide] | > 10000 | C (an IC50 ratio of less than 3 fold) | –
13 | > 1000 | > 500 | – | – | 50 to 500 | > 1000 | > 500 | Cc1cncc(NC(=O)C(=O)N2C[C@H](C)CC[C@H]2c2cccc(Cl)c2)c1 (racemic) [Compound 13, 2-[(2R,5S)-2-(3-chlorophenyl)-5-methyl-1-piperidyl]-N-(5-methyl-3-pyridyl)-2-oxo-acetamide] | > 10000 | C (an IC50 ratio of less than 3 fold) | –
14 | > 1000 | 50 to 500 | – | – | 50 to 500 | > 1000 | > 500 | Cc1cncc(NC(=O)C(=O)N2C[C@H](C)CC[C@H]2c2ccnc(C)c2)c1 (racemic) [Compound 14, 2-[(2S,5R)-5-methyl-2-(2-methyl-4-pyridyl)-1-piperidyl]-N-(5-methyl-3-pyridyl)-2-oxo-acetamide] | > 10000 | C (an IC50 ratio of less than 3 fold) | –
15 | > 1000 | 50 to 500 | – | – | 50 to 500 | > 1000 | 50 to 500 | COc1cccc([C@@H]2CC[C@@H](C)CN2C(=O)C(=O)Nc2cncc(C)c2)c1 (racemic) [Compound 28, rac-2-((2R,5S)-2-(3-methoxyphenyl)-5-methylpiperidin-1-yl)-N-(5-methylpyridin-3-yl)-2-oxoacetamide] | > 10000 | C (an IC50 ratio of less than 3 fold) | –
16 | > 1000 | 50 to 500 | – | – | 50 to 500 | > 1000 | 50 to 500 | CNC(=O)c1cccc([C@H]2CC[C@H](C)CN2C(=O)C(=O)Nc2cncc(C)c2)c1 (racemic) [Compound 48, N-methyl-3-[(2R,5S)-5-methyl-1-[2-[(5-methyl-3-pyridyl)amino]-2-oxo-acetyl]-2-piperidyl]benzamide] | > 10000 | C (an IC50 ratio of less than 3 fold) | –
17 | > 1000 | > 500 | – | – | 50 to 500 | > 1000 | > 500 | Cc1cncc(NC(=O)C(=O)N2C[C@H](C)CC[C@H]2c2cccc(F)c2)c1 (racemic) [Compound 70, rac-2-[(2S,5R)-2-(3-fluorophenyl)-5-methyl-1-piperidyl]-N-(5-methyl-3-pyridyl)-2-oxo-acetamide] | > 10000 | C (an IC50 ratio of less than 3 fold) | –
18 | > 1000 | > 500 | – | – | > 500 | – | > 500 | Cc1cncc(NC(=O)C(=O)N2C[C@@H](C)CC[C@@H]2c2cccs2)c1 (single isomer, unassigned) [Compound 76] | > 10000 | – | –
